Experimental findings from ChEMBL document CHEMBL5380793, “Structure-Activity Relationship of Novel Pyrimidine Derivatives with Potent Inhibitory Activities against Mycobacterium tuberculosis” (J Med Chem, 2023) are described below.

Data set [1] is described as follows: Cmax in Sprague-Dawley rat at 5 mg/kg, iv measured for 24 hrs by LC-MS analysis. Conditions: in vivo. Further details: time 24 hrs, dose 5 mg/kg, route iv. It counts as ADME, organism-based.
Data set [2] is described as follows: AUC(0 to t) in Sprague-Dawley rat at 15 mg/kg, po measured for 24 hrs by LC-MS analysis. The class given is ADME, organism-based. More on the design: dose 15 mg/kg, time 24 hrs, route po. Conditions: in vivo.
A short description of data set [3]: Apparent clearance during terminal phase in Sprague-Dawley rat at 5 mg/kg, iv measured for 24 hrs by LC-MS analysis. The class given is ADME, organism-based. Conditions: in vivo.
Data set [4] deals with T1, Dihydrofolate reductase (Mycobacterium tuberculosis) (UniProt P9WNX1).
T1 sequence (whole entry): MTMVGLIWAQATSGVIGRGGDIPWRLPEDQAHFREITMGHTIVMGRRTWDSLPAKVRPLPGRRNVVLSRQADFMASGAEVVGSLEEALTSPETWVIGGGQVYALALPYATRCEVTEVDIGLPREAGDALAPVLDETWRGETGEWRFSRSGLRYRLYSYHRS
As to the kind of experiment: Inhibition of Mycobacterium tuberculosis DHFR at 100 uM relative to control.

The nature of data set [5]: Tmax in Sprague-Dawley rat at 15 mg/kg, po measured for 24 hrs by LC-MS analysis. It counts as ADME, organism-based. The conditions noted are these: in vivo.
Data set [6] has as its system Mycobacterium tuberculosis. As to the kind of experiment: Antibacterial activity against Mycobacterium tuberculosis clinical isolate K12 assessed as inhibition of bacterial growth incubated for 6 days by microplate alamar blue assay. The class given is functional. Conditions: K12, 144 h, time 6 day. (In general: The colour change of resazurin is a common sign of viable cells or microbes.)

For data set [7], the system named is Mycobacteroides abscessus. Briefly: Antibacterial activity against Mycobacterium abscessus assessed as inhibition of bacterial growth. The class given is functional.
For data set [8], the system named is Mycobacterium tuberculosis. As to the kind of experiment: Antibacterial activity against Mycobacterium tuberculosis clinical isolate K5 assessed as inhibition of bacterial growth incubated for 6 days by microplate alamar blue assay. It counts as functional. The conditions noted are these: K5, 144 h, time 6 day.
Data set [9] is described as follows: AUC(0 to t) in Sprague-Dawley rat at 5 mg/kg, iv measured for 24 hrs by LC-MS analysis. It counts as ADME, organism-based. Further details: dose 5 mg/kg, time 24 hrs, route iv. Conditions: in vivo.
Data set [10] deals with T2, Serine/threonine-protein kinase PknB (Mycobacterium tuberculosis, UniProt P9WI81).
T2 sequence (P9WI81 whole entry): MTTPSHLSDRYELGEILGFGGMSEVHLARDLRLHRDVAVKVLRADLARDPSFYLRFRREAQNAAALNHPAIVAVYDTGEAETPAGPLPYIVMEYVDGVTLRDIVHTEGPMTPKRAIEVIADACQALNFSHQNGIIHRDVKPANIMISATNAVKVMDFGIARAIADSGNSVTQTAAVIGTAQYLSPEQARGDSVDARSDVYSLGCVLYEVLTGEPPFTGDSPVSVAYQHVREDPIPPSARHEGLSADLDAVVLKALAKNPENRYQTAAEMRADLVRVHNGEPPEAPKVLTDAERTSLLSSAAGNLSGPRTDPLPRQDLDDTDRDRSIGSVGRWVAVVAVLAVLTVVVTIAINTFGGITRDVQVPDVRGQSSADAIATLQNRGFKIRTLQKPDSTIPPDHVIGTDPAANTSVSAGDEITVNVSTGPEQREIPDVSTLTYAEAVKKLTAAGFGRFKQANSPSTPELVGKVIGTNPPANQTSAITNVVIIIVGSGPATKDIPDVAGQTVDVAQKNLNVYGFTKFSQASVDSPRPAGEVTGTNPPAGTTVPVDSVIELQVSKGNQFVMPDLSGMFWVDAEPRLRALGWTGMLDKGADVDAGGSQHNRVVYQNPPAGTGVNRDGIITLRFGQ
As to the kind of experiment: Binding affinity to Mycobacterium tuberculosis PknB assessed as dissociation constant at 600 uM by ITC analysis.

For data set [11], the system named is Mycobacterium tuberculosis. Briefly: Antitubercular activity against autoluminescent Mycobacterium tuberculosis H37Ra infected in BALB/c mouse assessed as reduction in relative light unit at 300 mg/kg, po administered once daily by oral gavage for 5 days and measured every 2 days by luminometer based analysis. The class given is functional. The conditions noted are these: time 5 day.

The target in data set [12] is T3, Serine/threonine-protein kinase PknB (Mycobacterium tuberculosis) (UniProt P9WI81).
T3 sequence (whole entry): T2 sequence (P9WI81 whole entry)
As to the kind of experiment: Binding affinity to Mycobacterium tuberculosis PknB assessed as thermal stability by measuring melting temperature at 100 uM incubated for 0.5 hrs by SYPRO orange dye based differential scanning fluorimetry analysis (reference value: 59 degreeC).

The nature of data set [13]: Toxicity in BALB/c mouse assessed as reduction in ALP level at 800 mg/kg, po measured at 14 days. It counts as organism-based. Conditions: in vivo, 336 h, time 14 day.
Data set [14] can be described thus: Toxicity in BALB/c mouse assessed as mouse death at 800 mg/kg, po measured for 2 weeks. The conditions noted are these: in vivo, 336 h. The class given is organism-based.
For data set [15], the target named is T3, Serine/threonine-protein kinase PknB (Mycobacterium tuberculosis). As to the kind of experiment: Binding affinity to Mycobacterium tuberculosis PknB assessed as gibbs free energy at 600 uM by ITC analysis. (Isothermal titration calorimetry measures the heat released or taken up as one component is titrated into another.)
Data set [16] can be described thus: Toxicity in BALB/c mouse assessed as increase in AST level at 800 mg/kg, po measured at 14 days. The class given is organism-based. The conditions noted are these: in vivo, 336 h, time 14 day.
In data set [17] the test system is Mycolicibacterium smegmatis. As to the kind of experiment: Antibacterial activity against Mycobacterium smegmatis assessed as inhibition of bacterial growth. The class given is functional.
The test system of data set [18] is Mycobacterium tuberculosis. Briefly: Antibacterial activity against Mycobacterium tuberculosis clinical isolate K16 assessed as inhibition of bacterial growth incubated for 6 days by microplate alamar blue assay. It counts as functional. Conditions: K16, 144 h, time 6 day.
The nature of data set [19]: Half life in Sprague-Dawley rat at 5 mg/kg, iv measured for 24 hrs by LC-MS analysis. It counts as ADME, organism-based. Conditions: in vivo.
Data set [20] has as its system Mycobacterium tuberculosis. As to the kind of experiment: Antibacterial activity against Mycobacterium tuberculosis clinical isolate K4 assessed as inhibition of bacterial growth incubated for 6 days by microplate alamar blue assay. It counts as functional. Conditions: K4, 144 h, time 6 day.
The nature of data set [21]: Toxicity in BALB/c mouse assessed as body weight loss at 800 mg/kg, po measured for 2 weeks. The class given is organism-based. The conditions noted are these: in vivo, 336 h.
The nature of data set [22]: Toxicity in BALB/c mouse assessed as reduction in LDH level at 800 mg/kg, po measured at 14 days. It counts as organism-based. The conditions noted are these: in vivo, 336 h, time 14 day.
Data set [23] in a line: Toxicity in BALB/c mouse assessed as increase in uric acid level at 800 mg/kg, po measured at 14 days. The class given is organism-based. The conditions noted are these: in vivo, 336 h, time 14 day.
Data set [24] concerns Mycobacterium tuberculosis. As to the kind of experiment: Antitubercular activity against marker free autoluminescent Mycobacterium tuberculosis H37Ra assessed as reduction in relative light unit measured once a day for 6 days. The class given is functional. Conditions: 144 h, time 6 day.
For data set [25], the system named is Mycobacterium tuberculosis. Briefly: Antibacterial activity against Mycobacterium tuberculosis H37Rv assessed as inhibition of bacterial growth incubated for 6 days by microplate alamar blue assay. Conditions: 144 h, time 6 day. It counts as functional.
In another data set the test system is Staphylococcus aureus. Briefly: Antibacterial activity against methicillin-resistant Staphylococcus aureus assessed as inhibition of bacterial growth. The class given is functional.
Data set [26] in a line: Cytotoxicity against human HepG2 cells assessed as inhibition of cell growth incubated for 48 hrs by MTT assay. It counts as toxicity, cell-based. A general note: Tetrazolium assays rely on reduction of a dye to a coloured formazan, in cell work by metabolically active cells.
Another data set has as its system Escherichia coli. Briefly: Antibacterial activity against Escherichia coli assessed as inhibition of bacterial growth. It counts as functional.
Data set [27] is described as follows: Oral bioavailability in Sprague-Dawley rat at 15 mg/kg measured for 24 hrs by LC-MS analysis. It counts as ADME, organism-based. The conditions noted are these: in vivo.
Data set [28] deals with T3, Serine/threonine-protein kinase PknB (Mycobacterium tuberculosis). Briefly: Binding affinity to Mycobacterium tuberculosis PknB assessed as thermal stability by measuring change in melting temperature at 100 uM incubated for 0.5 hrs by SYPRO orange dye based differential scanning fluorimetry analysis.
The target in data set [29] is T1, Dihydrofolate reductase (Mycobacterium tuberculosis). Briefly: Inhibition of Mycobacterium tuberculosis DHFR at 10 uM relative to control.
The nature of data set [30]: Cmax in Sprague-Dawley rat at 15 mg/kg, po measured for 24 hrs by LC-MS analysis. The conditions noted are these: in vivo. More on the design: dose 15 mg/kg, time 24 hrs, route po. It counts as ADME, organism-based.
The nature of data set [31]: Toxicity in BALB/c mouse assessed as histopathological changes in kidney at 800 mg/kg, po measured at 14 days by H and E staining based analysis. The class given is organism-based. The conditions noted are these: in vivo, 336 h, time 14 day.
Data set [32] is described as follows: Toxicity in BALB/c mouse assessed as mouse death at 300 mg/kg, po measured after 6 days. The class given is organism-based. The conditions noted are these: in vivo, 144 h, time 6 day.

≈ marks a conversion by molar mass, not a printed value.

Take `Cc1cc(Nc2nc(-c3ccccc3)ncc2Cl)c(OC(C)C)cc1C1CCNCC1`: the Cmax (commonly the highest concentration seen after dosing) worked out at 595 ng/mL in [1] and 108 ng/mL in data set [30]. Besides, the figures for the AUC(0-t) at 24 h in [2] and in [9] were 2080 ng·h/mL and 1690 ng·h/mL, respectively. For the same compound, the CLz/F in data set [3] is 25 mL/min/kg. The inhibition (in general, the share of the control response that was lost under treatment) in data set [4] turned out to be 7.1%; in data set [29] it was 4.5%. Besides, the Tmax (commonly the time at which the peak concentration occurs) in [5] was > 24 h. For the same compound, the MIC (usually the smallest concentration in the dilution series that meets the test's criterion for growth inhibition) amounted to 0.5 µg/mL (≈ 1.14 µM) in [6]; 4 µg/mL (≈ 9.15 µM) in data set [7]; 1 µg/mL (≈ 2.29 µM) in data set [8]; 4 µg/mL (≈ 9.15 µM) in data set [17]; 1 µg/mL (≈ 2.29 µM) in data set [18]; 0.5 µg/mL (≈ 1.14 µM) in data set [20]. The MIC in data set [24] is 0.5 µg/mL (≈ 1.14 µM); in data set [25], 0.5 µg/mL (≈ 1.14 µM); with Staphylococcus aureus, 4 µg/mL (≈ 9.15 µM); in the data set on Escherichia coli, > 16 µg/mL. In addition, the Kd (in general, a measure of binding affinity in units of concentration) in data set [10] was determined as 9.4 µM. Further, the Activity in [11] was 0.5 log10RLU; in [13], “Toxic”; in data set [14], “Non-Toxic”; in data set [16] it was “Toxic”; in data set [21] it was “Non-Toxic”; in [22], “Toxic”. For the same compound, the Activity entry in [23] and in [31] was “Toxic” in each case. The Tm in [12] was found to be 54 °C. For the same compound, the deltaG in data set [15] is -3.1 kcal/mol. Further, the half-life (usually how long it takes for the measured level to halve) in data set [19] is 26.2 h. The IC50 (commonly the concentration needed to halve the response being measured) at 48 h in data set [26] was determined as 3.1 µM. For the same compound, in data set [27], the bioavailability – broadly, dose-corrected exposure relative to a reference, in per cent – was 40.7%. Also, the ΔTm (as a rule, the change in melting temperature against a reference sample) in data set [28] is -5 °C.
Take `Cc1cc(Nc2nc(Nc3ccc(F)cc3)ncc2Cl)c(OC(C)C)cc1C1CCNCC1`: the inhibition is 3.5% in data set [4] and 2.8% in data set [29]. The MIC in data set [6] was 1 µg/mL (≈ 2.13 µM); in [7], 8 µg/mL (≈ 17 µM); in data set [8], 2 µg/mL (≈ 4.26 µM); in data set [17], 4 µg/mL (≈ 8.51 µM); in data set [18] it was 2 µg/mL (≈ 4.26 µM); in [20], 1 µg/mL (≈ 2.13 µM). In addition, the MIC in data set [24] was 0.5 µg/mL (≈ 1.06 µM); in [25], 1 µg/mL (≈ 2.13 µM); in the data set on Staphylococcus aureus, 4 µg/mL (≈ 8.51 µM); with Escherichia coli, > 16 µg/mL. Also, in data set [26], the IC50 at 48 h was 2.2 µM. In data set [32], the Activity result is recorded as “Toxic”.
On to `Cc1cc(Nc2ncc(Cl)c(Nc3cccc4ccccc34)n2)c(OC(C)C)cc1C1CCNCC1`, for which the figures for the inhibition in data set [4] and in data set [29] were 4.4% and 3.1%, respectively. Besides, the MIC in data set [7] is 16 µg/mL (≈ 31.9 µM); in data set [17], 16 µg/mL (≈ 31.9 µM); with Staphylococcus aureus it was 8 µg/mL (≈ 15.9 µM); in the data set with Escherichia coli it was > 16 µg/mL. The same compound showed a bioavailability in data set [27] of 17.5%.
